Measurements from US20030013635A1, “Method for the treatment of depression by inhibition of NAALADase” (priority 2001, published 2003).

Test system: socially defeated mice
Experiment: social defeat (SD) model in the mouse, social interaction with a non-aggressive intruder
Assay type: in vivo
Excerpt: N-acetylaspartylglutamate (NAAG) is the most abundant peptide neurotransmitter in the brain. Glu release is increased during stress. Inhibiting glutamatergic tone by inhibiting NAALADase proves an antidepressant in the social defeat (SD) model. The SD model is a form of conditioned contextual fear, in which once-defeated mice retain a long-lasting over-generalized fear and avoidance of all mice (even non-aggressive ones) and lose normal species-appropriate territorial defense.
The SD model is a form of conditioned contextual fear, in which once-defeated mice retain a long-lasting over-generalized fear and avoidance of all mice (even non-aggressive ones), losing normal species-appropriate territoriality [Lumley et al., 1999] and displaying immobility in a swim test—a behavior associated with models of depression [Hebert et al., 1998].
Thus, GPI 5232 increased normal territoriality and other species-appropriate social behavior. In sum, this drug diminished behaviors associated with conditioned contextual fear. It is also believed to reduce depression.

O=C(O)CCC(CP(=O)(O)Cc1c(F)c(F)c(F)c(F)c1F)C(=O)O (stereo not drawn) [GPI 5232]
behaviors associated with conditioned contextual fear (SD model): markedly diminished
normal territoriality and other species-appropriate social behavior (SD model): increased
display of territorial behavior in the form of runback re-approaches (acute injection, social interaction with a non-aggressive intruder (FIG. 1)): significantly increased
